Here are results for two molecules from publication PMC4785407, “Reduction Impairs the Antibacterial Activity but Benefits the LPS Neutralization Ability of Human Enteric Defensin 5” (Scientific Reports, 2016).

“Also recorded” adds a separate entry of the source. Bridge positions count the residues as written; N and C are the ends. Peptide text beside a SMILES is read from it.

Data set [1] relates to interaction between LPS and LBP (mouse LBP). The data set can be described thus: LPS-binding protein (LBP) block assay. The format is biochemical. The conditions noted are these: for effect on the interaction between LPS and LBP: 50 μg/mL peptide, mouse LBP 60 ng/mL, biotinylated LPS 50 ng/mL. The procedure: The effects of peptides on the interaction between LPS and low concentrations of LBP were determined as previously described. Briefly, the plates of a LBP ELISA kit (Boster EK1274) were blocked by the incubation of 1% BSA prepared in 10 mM sodium phosphate buffer (pH 7.4) at 37 °C for 1 h, which were subsequently washed with 0.1% Tween-20. Aliquots of 100 μL of mouse LBP (Sigma SRP6034, 60 ng/mL) were added and incubated at 37 °C for 1.5 h. Peptides were prepared in sterile water, with concentrations of 12.5, 25, and 50 μg/mL, respectively. Biotinylated LPS (50 ng/mL) was added in the absence or presence of peptides (pre-incubated at 37 °C for 30 min). Polymyxin B (200 ng/mL) was used as a positive control. The binding of LPS to LBP was determined using a chromogenic reaction between HRP-conjugated streptavidin (Boster BA1088) and TMB (Sigma 860336). Data were processed by subtracting the absorbance in the absence of LPS. Statistical significance was determined by the Student−Newman−Keuls multiple comparisons test.
Figure 5. The efficiencies of peptides in blocking the interaction between LPS and LBP. A LBP ELISA plate was blocked by 1% BSA and subsequently washed with 0.1% Tween-20. Aliquots of 100 μL of the mouse LBP (60 ng/mL) was added and incubated at 37°C for 1.5 h. Peptides were prepared in sterile water, with concentrations of 12.5, 25, and 50 μg/mL, respectively. Biotinylated LPS (50 ng/mL) was then added in the absence or presence of peptides (pre-incubated at 37°C for 30 min). Data were processed by subtracting the absorbance in the absence of biotinylated LPS. Statistical significance was determined by the Student−Newman−Keuls multiple comparisons test. n.s, not significant; **, p < 0.01, relative to the value of the group solely treated with LPS.

In a further data set the test system is human thioredoxin (Trx). Briefly: HD5OX reduction by thioredoxin in vitro, LC-MS. The class given is biochemical. The conditions noted are these: 30 μM HD5OX, 15 μM human Trx, 500 nM rat liver TrxR, 1 mM NADPH, 2 mM EDTA, pH 7.0, room temperature, 1 h. The procedure:
(§1) A mixture of 30 μM HD5OX, 15 μM human thioredoxin (Trx, Prospec PRO569), 500 nM rat liver thioredoxin reductase (TrxR, Sigma T9698), 1 mM NADPH (Sigma N5130), and 2 mM EDTA was incubated in 100 mM sodium phosphate buffer (pH 7.0) at room temperature for 1 h. The reaction was quenched by adding 6% trifluoroacetic acid (TFA). The solution was then centrifuged (10,000 g × 10 min) at 4 °C and analyzed with an Agilent 6410 liquid chromatography-mass spectrometry (LC-MS) instrument using a linear gradient of 5–45% acetonitrile that contained 0.1% TFA.

The subject of a further data set is bacteria. The conditions noted are these: among the α defensins; cited from earlier work. The source says: Oxidized human defensin 5 (HD5OX), a 32-residue α defensin, is stored in the secretory granules of Paneth cells in the small intestine as a propeptide (E20-R94) and is processed by anionic and/or meso isoforms of trypsin during secretion or shortly thereafter at a cleavage site between R62 and A63[6]. […] We have previously prepared bioactive HD5OX using Pichia pastoris and design ... || HD5OX is an endogenous bactericidal agent.

Another data set deals with CD4^+T cells. The conditions noted are these: cited from earlier work. The text has this: (§2) Human defensins are also noted for their immunoregulatory properties. […] Additionally, some defensins are able to suppress the pro-inflammatory effect of bacterial lipopolysaccharide (LPS). For example, H ...
The test system of data set [2] is intestinal epithelial cells. The conditions noted are these: cited from earlier work.
From the text: as §2

For data set [3] the following is noted: cited from earlier work. The text has this: Upon examining the biochemical properties of synthetic IDRs, the structural flexibility was noted. For example, the bovine bactenecin linear derivative 1018 adopts various folds in different media, relative to the natural peptide, to adapt to different functions. […] It can be exp ...
The test system of data set [4] is anthrax lethal factor (LF). The conditions noted are these: cited from earlier work.
The subject of a further data set is HIV gp-120. The conditions noted are these: cited from earlier work.
The next data set concerns E. coli ML35 cells. The data set can be described thus: Membrane depolarization, flow cytometry DiBAC4(3). The conditions noted are these: 6.25 μg/mL; for DP (depolarized cells): 37 °C, 1 h, DiBAC4(3) flow cytometry, representative scatter plot. In general terms: In flow cytometry, cells or beads pass a laser one at a time.
Data set [5] deals with E. coli ML35 (ATCC 43827) cells. The data set can be described thus: Zeta potential determination. The class given is cell-based. The procedure: Samples were equilibrated at 25 °C for 2 min. Zeta potential was determined using the Zetasizer Nano ZS (Malvern Instruments, UK). A total of 6 measurements of 100 runs were carried out for each sample.
Data set [6] deals with E. coli ML35 (ATCC 43827) outer membrane. Briefly: Outer membrane penetration (NPN uptake assay). The format is cell-based. The conditions noted are these: 6.25 μg/mL, 10 mM sodium phosphate buffer pH 7.4, 37 °C, 1 h; vs HD5OX. The procedure:
Then, an aliquot of 10 μL of NPN (Sigma 104043) was added, resulting in a final concentration of 10 μM. After excitation at 350 nm, the fluorescent intensity was measured in the range from 380-450 nm at intervals of 2 nm using a Tecan Infinite […] microplate reader.

For data set [7], the system named is E. coli ML35 inner membrane. Briefly: Inner membrane permeabilization (ONPG). The class given is cell-based. The conditions noted are these: 6.25 and 12.5 μg/mL, 37 °C, 2 h, absorbance 405 nm, vs HD5OX. The procedure: The production of 2-nitrophenol (ONP), a marker of inner membrane penetration, was determined by measuring the absorbance at 405 nm.
A short description of data set [8]: Hydrophobicity of the Trx reduction product (LC-MS). The format is physicochemical. The conditions noted are these: linear gradient of 5–45% acetonitrile with 0.1% TFA, vs HD5OX. The procedure:
as §1

Data set [9] has as its system Enterococcus faecalis (ATCC 29212). The data set can be described thus: virtual colony count assay, E. faecalis. The conditions noted are these: HD5OX vs HD5RED.

In the case of `CC[C@H](C)[C@@H]1NC(=O)[C@H](CCC(=O)O)NC(=O)[C@@H]2CSSC[C@@H]3NC(=O)[C@H](Cc4ccc(O)cc4)NC(=O)[C@@H](NC(=O)[C@@H](NC(=O)[C@H](C)N)[C@@H](C)O)CSSC[C@@H](C(=O)N[C@@H](CCCNC(=N)N)C(=O)O)NC(=O)[C@H](CSSC[C@H](NC(=O)[C@H](CCCNC(=N)N)NC(=O)CNC(=O)[C@H]([C@@H](C)O)NC(=O)[C@H](CCCNC(=N)N)NC3=O)C(=O)N[C@@H](C)C(=O)N[C@@H]([C@@H](C)O)C(=O)N[C@@H](CCCNC(=N)N)C(=O)N[C@@H](CCC(=O)O)C(=O)N[C@@H](CO)C(=O)N[C@@H](CC(C)C)C(=O)N[C@@H](CO)C(=O)NCC(=O)N[C@@H](C(C)C)C(=O)N2)NC(=O)[C@H](CC(C)C)NC(=O)[C@H](CCCNC(=N)N)NC(=O)[C@H](Cc2ccc(O)cc2)NC(=O)[C@H](CC(C)C)NC(=O)[C@H](CCCNC(=N)N)NC(=O)CNC(=O)[C@H](CO)NC1=O` [HD5OX, Oxidized human defensin 5] (H-ATCYCRTGRCATRESLSGVCEISGRLYRLCCR-OH; disulfide 3-31, 5-20, 10-30; N-terminus and C-terminus assumed), the “effect on the interaction between LPS and LBP” value in data set [1] is “less effect on the interaction between LPS and LBP”. Further, the “reduction by Trx” value in the data set with human thioredoxin (Trx) was “Trx catalyzed the reduction of HD5OX in vitro”. Moreover, the antibacterial activity entry with bacteria is “widest spectrum of antibacterial activity among the α defensins”. Besides, the IL-2 production result with CD4^+T cells is “can induce the production of IL-8 and IL-2”. Besides, the IL-8 production entry in data set [2] is recorded as “can induce the production of IL-8”. Further, the LPS binding entry in [3] is recorded as “can bind LPS”. Further, the “binding and inhibition of anthrax lethal factor” value in [4] is “efficiently bind and inhibit anthrax lethal factor”. Also, in the data set on HIV gp-120, the “binding and inhibition of HIV gp-120” value was “efficiently bind and inhibit”. Also, the “DP (depolarized cells)” value in the data set with E. coli ML35 cells came out at 31.8%.

`CC[C@H](C)[C@H](NC(=O)[C@H](CCC(=O)O)NC(=O)[C@H](CS)NC(=O)[C@@H](NC(=O)CNC(=O)[C@H](CO)NC(=O)[C@H](CC(C)C)NC(=O)[C@H](CO)NC(=O)[C@H](CCC(=O)O)NC(=O)[C@H](CCCNC(=N)N)NC(=O)[C@@H](NC(=O)[C@H](C)NC(=O)[C@H](CS)NC(=O)[C@H](CCCNC(=N)N)NC(=O)CNC(=O)[C@@H](NC(=O)[C@H](CCCNC(=N)N)NC(=O)[C@H](CS)NC(=O)[C@H](Cc1ccc(O)cc1)NC(=O)[C@H](CS)NC(=O)[C@@H](NC(=O)[C@H](C)N)[C@@H](C)O)[C@@H](C)O)[C@@H](C)O)C(C)C)C(=O)N[C@@H](CO)C(=O)NCC(=O)N[C@@H](CCCNC(=N)N)C(=O)N[C@@H](CC(C)C)C(=O)N[C@@H](Cc1ccc(O)cc1)C(=O)N[C@@H](CCCNC(=N)N)C(=O)N[C@@H](CC(C)C)C(=O)N[C@@H](CS)C(=O)N[C@@H](CS)C(=O)N[C@@H](CCCNC(=N)N)C(=O)O` [HD5RED] (H-ATCYCRTGRCATRESLSGVCEISGRLYRLCCR-OH): the “zeta potential of cells, compared with HD5OX” value in data set [5] (12.5 and 50 μg/mL, peptide vs HD5OX) is “significantly less than that of cells treated with HD5OX; also recorded: less efficient in altering the bacterial surface charge than HD5OX”. In addition, the “zeta potential of cells” value in data set [5] (E. coli ML35 cells, 10 mM sodium phosphate buffer pH 7.4, 1% TSB, 25 °C) is given as “approximately −37 mV”. Besides, the “outer membrane destruction (NPN fluorescence intensity)” value in data set [6] was “destroys the outer membrane less effectively than HD5OX”. Further, in data set [7], the inner membrane disintegration result is on record as “attenuated potency for disintegrating the bacterial inner membrane”. Moreover, the “effect on the interaction between LPS and LBP” value in data set [1] was “significantly inhibited the LPS-LBP interaction”. The “LBP-blocking, dose dependence” value in data set [1] (12.5, 25, and 50 μg/mL) is “dose-dependent LBP-blocking”. Further, the hydrophobicity of product result in data set [8] is given as “increased hydrophobicity”. In [9], the “efficiency against Gram-positive E. faecalis, relative” value is listed as “less than HD5OX”. In addition, the “DP (depolarized cells)” value with E. coli ML35 cells is 2.04%. For the same molecule, the “membrane depolarization, relative” value with E. coli ML35 cells (HD5RED vs HD5OX, mean of three independent experiments) is on record as “less efficiency of HD5RED in inducing membrane depolarization relative to HD5OX; also recorded: significantly lower than that of HD5OX”.
